Source: patent US11724992B2 (Novartis AG, priority 2017, dated 2023)

tested on: IL-1β production in PMA-differentiated THP-1 cells; assay: IL-1β production in PMA-differentiated THP-1 cells stimulated with gramicidin (hTHP-1 assay, 2% fetal bovine serum; Procedures 1-3); type: cell-based, human; conditions: Homo sapiens, THP-1, hTHP-1 assay containing 2% fetal bovine serum; class symbols; read-out: hTHP-1 IC50 (Average IC50 of compounds in hTHP-1 assay)
Description: The following protocol is suitable for testing the activity of the compounds disclosed herein.
Procedure 1: IL-1β Production in PMA-Differentiated THP-1 Cells Stimulated with Gramicidin
THP-1 cells were purchased from the American Type Culture Collection and sub-cultured according to instructions from the supplier. Cells were cultured in complete RPMI 1640 (containing 10% heat inactivated FBS, penicillin (100 units/ml) and streptomycin (100 μg/ml)), and maintained in log phase prior to experimental setup. Prior to the experiment, compounds were dissolved in dimethyl sulfoxide (DMSO) to generate a 30 mM stock. The compound stock was first pre-diluted in DMSO to 3, 0.34, 0.042 and 0.0083 mM intermediate concentrations and subsequently spotted using Echo550 liquid handler into an empty 384-well assay plate to achieve desired final concentration (e.g. 100, 33, 11, 3.7, 1.2, 0.41, 0.14, 0.046, 0.015, 0.0051, 0.0017 μM). DMSO was backfilled in the plate to achieve a final DMSO assay concentration of 0.37%. The plate was then sealed and stored at room temperature until required.
THP-1 cells were treated with PMA (Phorbol 12-myristate 13-acetate) (20 ng/ml) for 16-18 hours. On the day of the experiment the media was removed and adherent cells were detached with trypsin for 5 minutes. Cells were then harvested, washed with complete RPMI 1640, spun down, and resuspended in RPMI 1640 (containing 2% heat inactivated FBS, penicillin (100 units/ml) and streptomycin (100 μg/ml). The cells were plated in the 384-well assay plate containing the spotted compounds at a density of 50,000 cells/well (final assay volume 50 μl). Cells were incubated with compounds for 1 hour and then stimulated with gramicidin (5 μM) (Enzo) for 2 hours. Plates were then centrifuged at 340 g for 5 min. Cell free supernatant (40 μL) was collected using a 96-channel PlateMaster (Gilson) and the production of IL-1β was evaluated by HTRF (cisbio). The plates were incubated for 18 h at 4° C. and read using the preset HTRF program (donor emission at 620 nm, acceptor emission at 668 nm) of the SpectraMax i3x spectrophotometer (Molecular Devices, software SoftMax 6). A vehicle only control and a dose titration of CRID3 (100-0.0017 μM) were run concurrently with each experiment.
Procedure 2: IL-1β Production in PMA-Differentiated THP-1 Cells Stimulated with Gramicidin
THP-1 cells were purchased from the American Type Culture Collection and sub-cultured according to instructions from the supplier. Prior to experiments, cells were cultured in complete RPMI 1640 (containing 10% heat inactivated FBS, penicillin (100 units/ml) and streptomycin (100 μg/ml)), and maintained in log phase prior to experimental setup. Prior to the experiment THP-1 were treated with PMA (Phorbol 12-myristate 13-acetate) (20 ng/ml) for 16-18 hours. Compounds were dissolved in dimethyl sulfoxide (DMSO) to generate a 30 mM stock. On the day of the experiment the media was removed and adherent cells were detached with trypsin for 5 minutes. Cells were then harvested, washed with complete RPMI 1640, spun down, resuspended in RPMI 1640 (containing 2% heat inactivated FBS, penicillin (100 units/ml) and streptomycin (100 μg/ml). The cells were plated in a 384-well plate at a density of 50,000 cells/well (final assay volume 50 μl). Compounds were first dissolved in assay medium to obtain a 5× top concentration of 500 μM. 10 step dilutions (1:3) were then undertaken in assay medium containing 1.67% DMSO. 5× compound solutions were added to the culture medium to achieve desired final concentration (e.g. 100, 33, 11, 3.7, 1.2, 0.41, 0.14, 0.046, 0.015, 0.0051, […]). Final DMSO concentration was at 0.37%. Cells were incubated with compounds for 1 hour and then stimulated with gramicidin (5 μM) (Enzo) for 2 hours. Plates were then centrifuged at 340 g for 5 min. Cell free supernatant (40 μL) was collected using a 96-channel PlateMaster (Gilson) and the production of IL-1β was evaluated by HTRF (cisbio). […]

Row | Structure (SMILES) | IC50 [µM]
1 | CC(C)(O)c1ncc([S@](N)(=O)=NC(=O)Nc2c3c(cc4c2CC4)CCC3)s1 (single isomer, unassigned) [Example 224] | 0.008 to 0.04
2 | CC(C)(O)c1ncc([S@@](N)(=O)=NC(=O)Nc2c3c(cc4c2CC4)CCC3)s1 (single isomer, unassigned) [Example 225] | 1 to 5
3 | Cc1oc(S(N)(=O)=NC(=O)Nc2c3c(cc4c2CCC4C)CCC3)cc1C(C)(C)O (single isomer, unassigned) [Example 305, (R,S) or (R,R)-4-(2-hydroxypropan-2-yl)-5-methyl-N′-((3-methyl-1,2,3,5,6,7-hexahydro-s-indacen-4-yl)carbamoyl)furan-2-sulfonimidamide; resolved from example 123] | 0.008 to 0.04

same assay, conditions: hTHP-1 assay containing 2% fetal bovine serum; class symbols; read-out: hTHP-1 IC50 (Average IC50 of compounds in hTHP-1 assay)

Row | Structure (SMILES) | IC50 [µM]
4 | CNS(=O)(=NC(=O)Nc1c2c(c(F)c3c1CCC3)CCC2)c1cc(C(C)(C)O)cs1 (single isomer, unassigned) [Example 181] | 5 to 30
5 | CC(C)c1cc(C#N)cc(C(C)C)c1NC(=O)N=S(N)(=O)c1sc(C(C)(C)O)cc1F (single isomer, unassigned) [Example 182] | 0.008 to 0.04
6 | CC(C)c1cc(C#N)cc(C(C)C)c1NC(=O)N=S(N)(=O)c1sc(C(C)(C)O)cc1F (single isomer, unassigned) [Example 183] | 0.2 to 1
7 | CC(C)c1cc(C#N)cc(C(C)C)c1NC(=O)N=S(N)(=O)c1cc(C#N)cc(C(C)(C)O)c1 (single isomer, unassigned) [Example 184] | 0.2 to 1
8 | CC(C)c1cc(C#N)cc(C(C)C)c1NC(=O)N=S(N)(=O)c1cc(C#N)cc(C(C)(C)O)c1 (single isomer, unassigned) [Example 185] | 5 to 30
9 | CC(C)c1cc(C#N)cc(C(C)C)c1NC(=O)N=S(N)(=O)c1ccc(C(C)(C)O)s1 (single isomer, unassigned) [Example 186] | 0.04 to 0.2
10 | CC(C)c1cc(C#N)cc(C(C)C)c1NC(=O)N=S(N)(=O)c1ccc(C(C)(C)O)s1 (single isomer, unassigned) [Example 187] | 5 to 30
11 | CC(C)(O)c1nc(CO)c(S(N)(=O)=NC(=O)Nc2c3c(c(C#N)c4c2CCC4)CCC3)s1 (single isomer, unassigned) [Example 190] | 0.2 to 1
12 | CC(C)(O)c1nc(CO)c(S(N)(=O)=NC(=O)Nc2c3c(c(C#N)c4c2CCC4)CCC3)s1 (single isomer, unassigned) [Example 191] | 5 to 30
13 | CC(C)c1cc(C#N)c(F)c(C(C)C)c1NC(=O)N=S(N)(=O)c1sc(C(C)(C)O)nc1CO (single isomer, unassigned) [Example 194] | 1 to 5
14 | CC(C)c1cc(C#N)c(F)c(C(C)C)c1NC(=O)N=S(N)(=O)c1sc(C(C)(C)O)nc1CO (single isomer, unassigned) [Example 195] | 5 to 30
17 | CC(C)(O)c1coc(S(N)(=O)=NC(=O)Nc2c3c(cc4c2CCC4)CCC3)c1 (single isomer, unassigned) [Example 202] | 1 to 5
18 | CC(C)(O)c1coc(S(N)(=O)=NC(=O)Nc2c3c(cc4c2CCC4)CCC3)c1 (single isomer, unassigned) [Example 203] | < 0.008
21 | CC(C)(O)c1csc(S(N)(=O)=NC(=O)Nc2c3c(c(F)c4c2CCC4)CCC3)c1 (single isomer, unassigned) [Example 206] | 0.008 to 0.04
22 | CC(C)(O)c1csc(S(N)(=O)=NC(=O)Nc2c3c(c(F)c4c2CCC4)CCC3)c1 (single isomer, unassigned) [Example 207] | 0.2 to 1
23 | CC(C)(O)c1cnc(S(N)(=O)=NC(=O)Nc2c3c(cc4c2CCC4)CCC3)s1 (single isomer, unassigned) [Example 296, (R) or (S)-N′-((1,2,3,5,6,7-hexahydro-s-indacen-4-yl)carbamoyl)-5-(2-hydroxypropan-2-yl)thiazole-2-sulfonimidamide] | < 0.008
24 | CC(C)(O)c1cnc(S(N)(=O)=NC(=O)Nc2c3c(cc4c2CCC4)CCC3)s1 (single isomer, unassigned) [Example 297, (S) or (R)-N′-((1,2,3,5,6,7-hexahydro-s-indacen-4-yl)carbamoyl)-5-(2-hydroxypropan-2-yl)thiazole-2-sulfonimidamide] | 0.2 to 1
25 | CC(C)c1ccc(F)c(C(C)C)c1NC(=O)N=S(N)(=O)c1cnc(C(C)(C)O)s1 (single isomer, unassigned) [Example 298, (R) or (S)-N′-((3-fluoro-2,6-diisopropylphenyl)carbamoyl)-2-(2-hydroxypropan-2-yl)thiazole-5-sulfonimidamide] | 0.04 to 0.2
26 | CC(C)c1ccc(F)c(C(C)C)c1NC(=O)N=S(N)(=O)c1cnc(C(C)(C)O)s1 (single isomer, unassigned) [Example 299, (S) or (R)-N′-((3-fluoro-2,6-diisopropylphenyl)carbamoyl)-2-(2-hydroxypropan-2-yl)thiazole-5-sulfonimidamide] | 1 to 5
27 | CC(C)c1ccc(C#N)c(C(C)C)c1NC(=O)N=S(N)(=O)c1ccc(C(C)(C)O)s1 (single isomer, unassigned) [Example 300, (R) or (S)-N′-((3-cyano-2,6-diisopropylphenyl)carbamoyl)-5-(2-hydroxypropan-2-yl)thiophene-2-sulfonimidamide] | 0.2 to 1
28 | Cc1oc(S(N)(=O)=NC(=O)Nc2c3c(cc4c2C(C)CC4)CCC3)cc1C(C)(C)O (single isomer, unassigned) [Example 302, (R,R) or (R,S) or (S,S) or (S,R)-4-(2-hydroxypropan-2-yl)-5-methyl-N′-((3-methyl-1,2,3,5,6,7-hexahydro-s-indacen-4-yl)carbamoyl)furan-2-sulfonimidamide resolved from example 127] | 0.2 to 1
29 | Cc1oc(S(N)(=O)=NC(=O)Nc2c3c(cc4c2C(C)CC4)CCC3)cc1C(C)(C)O (single isomer, unassigned) [Example 303, (R,S) or (R,R) or (S,R) or (S,S)-4-(2-hydroxypropan-2-yl)-5-methyl-N′-((3-methyl-1,2,3,5,6,7-hexahydro-s-indacen-4-yl)carbamoyl)furan-2-sulfonimidamide resolved from example 127] | 0.008 to 0.04
30 | Cc1oc(S(N)(=O)=NC(=O)Nc2c3c(cc4c2CCC4C)CCC3)cc1C(C)(C)O (single isomer, unassigned) [Example 304, (R,R) or (R,S)-4-(2-hydroxypropan-2-yl)-5-methyl-N′-((3-methyl-1,2,3,5,6,7-hexahydro-s-indacen-4-yl)carbamoyl)furan-2-sulfonimidamide; resolved from example 123] | 0.04 to 0.2
